Test results taken from patent US20210315898A1, “COMBINATION THERAPY FOR TREATING CANCER” (AstraZeneca AB, priority 2018, published 2021).

What was measured:
HL-60 AML cells = assay: HL-60 subcutaneous xenograft model of AML, tumor volume and survival; assay type: in vivo, SCID mice; conditions: HL-60 xenograft, FIG. 2; AZD2811 nanoparticles 25 mg/kg iv once weekly; 5-azacytidine 1 mg/kg ip twice-daily for three days, 4 rest days; 3 weekly cycles, start day 7; monotherapy compared with KG1a model
Method: (§1) HL-60: 1×10^7 HL-60 AML cells in 50% matrigel were implanted subcutaneously on the left flank of adult female SCID mice. Mice were randomised into groups of 12 and dosing was started for all drugs and all combinations at day 7 respectively following implant. AZD2811 nanoparticles were dosed at once weekly with a 20-30 s intravenous infusion at either 25 mg/kg (100 mg/kg was the maximum tolerated dose in combination 5-azacytidine at 1 mg/kg; 5-azacytidine was dosed twice-daily for three days by the intraperitoneal route, followed by 4 rest days of no dosing). All drugs were given for 3 weekly cycles. Tumors were measured twice weekly by single operators, and all dosing was performed by randomised cage to minimise systematic bias. Mice reached study survival endpoint when tumors reached 1.5 cm^3

KG1a AML cells = assay: KG1a subcutaneous xenograft model of AML, tumor volume; assay type: in vivo, SCID mice; conditions: FIG. 1, AZD2811 nanoparticles 100 mg/kg iv once weekly, 5-azacytidine 1 mg/kg ip twice-daily for three days, 4 rest days, 3 weekly cycles, start day 1
Method: as §1, with “KG1a: 2×10^7 KG1a” for “HL-60: 1×10^7 HL-60”, “1 (D1)” for “7 respectively”, “100” for “either 25”, “surival” for “survival”, “cm^3.” for “cm^3”

Nc1ncn([C@@H]2O[C@H](CO)[C@@H](O)[C@H]2O)c(=O)n1 [5-azacytidine, 4-amino-1-(β-D-ribofuranosyl)-1,3,5-triazin-2(1H)-one]
efficacy (reduction in tumor volume over time) (HL-60 AML cells): greater efficacy
efficacy (reduction in tumor volume over time) (KG1a AML cells): modestly efficacious
